Measured values reported in ChEMBL document CHEMBL4831501, “Discovery of a potent and selective inhibitor of histone lysine demethylase KDM4D” (Eur J Med Chem, 2021).
pIC50: −log10 of the molar value. The source made the active and inactive calls. The calls are words filed in the database; no cut-off is given here.

How the values were obtained:
[1] = biological target: T1, Lysine-specific demethylase 4D (Homo sapiens) (UniProt Q6B0I6); test: Inhibition of KDM4D in human HCT-116 cells assessed as reduction in c-myc protein expression incubated for 48 hrs measured by Western blot analysis; format: cell-based; conditions: dose 2.5-20 µM
T1 sequence (whole entry): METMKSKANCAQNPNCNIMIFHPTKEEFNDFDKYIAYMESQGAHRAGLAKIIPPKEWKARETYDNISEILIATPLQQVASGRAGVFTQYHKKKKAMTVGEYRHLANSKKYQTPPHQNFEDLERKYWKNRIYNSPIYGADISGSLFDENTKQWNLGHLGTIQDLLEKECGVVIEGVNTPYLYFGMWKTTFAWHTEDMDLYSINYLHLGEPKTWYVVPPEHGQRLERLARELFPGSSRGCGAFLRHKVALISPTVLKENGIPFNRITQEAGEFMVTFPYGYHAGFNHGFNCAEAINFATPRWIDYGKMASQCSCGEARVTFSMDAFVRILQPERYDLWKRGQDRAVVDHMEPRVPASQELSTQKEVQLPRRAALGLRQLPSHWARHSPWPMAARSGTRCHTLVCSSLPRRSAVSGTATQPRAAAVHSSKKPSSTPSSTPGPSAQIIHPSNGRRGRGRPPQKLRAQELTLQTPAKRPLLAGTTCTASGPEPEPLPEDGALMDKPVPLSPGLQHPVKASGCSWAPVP

HCT-116 [2] = test: Downregulation of KDM4D expression in human HCT-116 cells at 2.5 to 20 uM incubated for 48 hrs measured by Western blot analysis; format: functional, cell-based; conditions: dose 2.5-20 µM
SW-620 [3] = test: Inhibition of colony formation in human SW-620 cells incubated for 7 days by crystal violet staining based assay; format: functional, cell-based; conditions: dose 2.5-10 µM, time 7.0 day
SW-620 [4] = test: Antiproliferative activity against human SW-620 cells assessed as reduction in cell viability measured after 72 hrs by MTT assay; format: functional, cell-based; conditions: SW-620, 72 h
SMMC-7721 = test: Antiproliferative activity against human SMMC-7721 cells assessed as reduction in cell viability measured after 72 hrs by MTT assay; format: functional, cell-based
HCT-116 [5] = test: Inhibition of cell migration in human HCT-116 cells at 20 uM incubated for 36 hrs by wound healing assay; format: functional
[6] = biological target: T1, Lysine-specific demethylase 4D (Homo sapiens); test: Inhibition of human KDM4D expressed in Escherichia coli BL21 (DE3) at 1 uM using biotinylated H3-derived peptide and 2-OG as substrate preincubated for 15 mins followed by substrate addition and measured after 1 hr by AlphaLISA assay; conditions: time 75.0 min
HepG2 = test: Antiproliferative activity against human HepG2 cells assessed as reduction in cell viability measured after 72 hrs by MTT assay; format: functional, cell-based
[7] = biological target: T1, Lysine-specific demethylase 4D (Homo sapiens); test: Inhibition of KDM4D in human HCT-116 cells assessed as reduction in beta-catenin protein expression incubated for 48 hrs measured by Western blot analysis; format: cell-based; conditions: dose 2.5-20 µM
DU-145 = test: Antiproliferative activity against human DU-145 cells assessed as reduction in cell viability measured after 72 hrs by MTT assay; format: functional, cell-based
FaDu = test: Antiproliferative activity against human FaDu cells assessed as reduction in cell viability measured after 72 hrs by MTT assay; format: functional, cell-based
NCI-H1792 = test: Antiproliferative activity against human NCI-H1792 cells assessed as reduction in cell viability measured after 72 hrs by MTT assay; format: functional, cell-based
Huh-7 = test: Antiproliferative activity against human Huh-7 cells assessed as reduction in cell viability measured after 72 hrs by MTT assay; format: functional, cell-based
HCT-116 [8] = test: Inhibition of cell migration in human HCT-116 cells by crystal violet staining based transwell assay; format: functional; conditions: dose 2.5-10 µM
[9] = Inhibition of KDM7B (unknown origin) by AlphaLISA assay; parameters: species or system Homo sapiens
[10] = biological target: T1, Lysine-specific demethylase 4D (Homo sapiens); test: Inhibition of GST-tagged KDM4D (unknown origin) expressed in Escherichia coli DH5alpha assessed as histone demethylation activity using H3K9me3 as substrate incubated for 4 hrs in presence of FLAG-histone H3 measured by Western blot analysis; conditions: dose 2.5-20 µM
HeLa = test: Antiproliferative activity against human HeLa cells assessed as reduction in cell viability measured after 72 hrs by MTT assay; format: functional, cell-based
SW480 [11] = test: Antiproliferative activity against human SW480 cells assessed as reduction in cell viability measured after 72 hrs by MTT assay; format: functional, cell-based; conditions: SW480, 72 h
SW480 [12] = test: Inhibition of colony formation in human SW480 cells incubated for 7 days by crystal violet staining based assay; format: functional, cell-based; conditions: dose 2.5-10 µM, time 7.0 day
HCT-116 [13] = test: Antiproliferative activity against human HCT-116 cells assessed as reduction in cell viability measured after 72 hrs by MTT assay; format: functional, cell-based; conditions: HCT-116, 72 h
HCT-116 [14] = test: Inhibition of cell migration in human HCT-116 cells incubated for 12 to 36 hrs by wound healing assay; format: functional, cell-based; conditions: dose 10-20 µM, time lower 12.0 hrs, time upper […]
HCT-116 [15] = test: Inhibition of cell migration in human HCT-116 cells at 10 to 20 uM by wound healing assay; format: functional, cell-based; conditions: dose 10-20 µM, time lower 12.0 hrs, time upper […], TDE = time-dependent effect
HCT-116 [16] = test: Inhibition of cell migration in human HCT-116 cells at 10 uM incubated for 36 hrs by wound healing assay; format: functional
[17] = biological target: T1, Lysine-specific demethylase 4D (Homo sapiens); test: Inhibition of KDM4D in human HCT-116 cells assessed as reduction in Gli1 protein expression incubated for 48 hrs measured by Western blot analysis; format: cell-based; conditions: dose 2.5-20 µM
HCT-116 [18] = test: Inhibition of colony formation in human HCT-116 cells incubated for 7 days by crystal violet staining based assay; format: functional, cell-based; conditions: dose 2.5-10 µM, time 7.0 day
A549 = test: Antiproliferative activity against human A549 cells assessed as reduction in cell viability measured after 72 hrs by MTT assay; format: functional, cell-based
[19] = biological target: T2, Lysine-specific demethylase 4D (Homo sapiens, UniProt Q6B0I6); test: Inhibition of KDM4D (unknown origin)
T2 sequence (Q6B0I6 whole entry): T1 sequence (whole entry)

[20] = biological target: T2, Lysine-specific demethylase 4D; test: Inhibition of human KDM4D expressed in Escherichia coli BL21 (DE3) using biotinylated H3-derived peptide and 2-OG as substrate preincubated for 15 mins followed by substrate addition and measured after 1 hr by AlphaLISA assay

CC(C)(C)OC(=O)N[C@@H]1CCN(C(c2ccc(-c3ccncc3)cc2)c2cc3c(cc2O)OCO3)C1 (some centres not stated)
inhibition [1]: Dose-Dependent Effect | inhibition (HCT-116 [2]): Active | inhibition (SW-620 [3]): Dose-Dependent Effect | pIC50 (SW-620 [4]): 4.72 | Activity (SMMC-7721): Active | inhibition at 20 µM (HCT-116 [5]): 94.1% | inhibition [6]: 99.5% | Activity (HepG2): Active | inhibition [7]: Dose-Dependent Effect | Activity (DU-145): Active | Activity (FaDu): Active | Activity (NCI-H1792): Active | Activity (Huh-7): Active | inhibition (HCT-116 [8]): Dose-Dependent Effect | pIC50 [9]: 4.08 | inhibition [10]: Dose-Dependent Effect | Activity (HeLa): Active | pIC50 (SW480 [11]): 4.97 | inhibition (SW480 [12]): Dose-Dependent Effect | pIC50 (HCT-116 [13]): 4.97 | inhibition (HCT-116 [14]): Dose-Dependent Effect | inhibition (HCT-116 [15]): Tde | inhibition at 10 µM (HCT-116 [16]): 42.4% | inhibition [17]: Dose-Dependent Effect | inhibition (HCT-116 [18]): Dose-Dependent Effect | Activity (A549): Active

Clc1ccc(N/N=C(\c2ccccc2)c2ccccn2)nc1
pIC50 [19]: 6.54

CC(C)(C)OC(=O)N[C@@H]1CCN(C(c2cccc(-c3ccccn3)c2)c2cc3c(cc2O)OCO3)C1 (some centres not stated)
inhibition [6]: 91.4% | pIC50 [20]: 6.55

CC(C)(C)NC(=O)N[C@@H]1CCN(C(c2ccncc2)c2cc3c(cc2O)OCO3)C1 (some centres not stated)
inhibition [6]: 97.2% | pIC50 [20]: 6.73

Cn1nccc1C(c1cc2c(cc1O)OCO2)N1CC[C@@H](NC(=O)OC(C)(C)C)C1 (some centres not stated)
inhibition [6]: 94.6% | pIC50 [20]: 6.29

O=C(N[C@@H]1CCN(C(c2ccncc2)c2cc3c(cc2O)OCO3)C1)c1cccc(F)c1 (some centres not stated)
inhibition [6]: 99.7% | pIC50 [20]: 6.45

O=C(N[C@@H]1CCN(C(c2ccncc2)c2cc3c(cc2O)OCO3)C1)C1CCCCC1 (some centres not stated)
inhibition [6]: 99.2% | pIC50 [20]: 6.28

CC(C)(C)OC(=O)N[C@@H]1CCN(C(c2ccc(-n3cccc3)cc2)c2cc3c(cc2O)OCO3)C1 (some centres not stated)
inhibition [6]: 95.6% | pIC50 [20]: 6.35

CN(C(=O)OC(C)(C)C)[C@@H]1CCN(C(c2ccncc2)c2cc3c(cc2O)OCO3)C1 (some centres not stated)
inhibition [6]: 87.6% | pIC50 [20]: 6.19

CC(C)(C)OC(=O)N[C@@H]1CCN(C(c2ccc(-n3cncn3)cc2)c2cc3c(cc2O)OCO3)C1 (some centres not stated)
inhibition [6]: 99.7% | pIC50 [20]: 7.25

CC(C)(C)OC(=O)N[C@@H]1CCN(C(c2ccc(C#N)cn2)c2cc3c(cc2O)OCO3)C1 (some centres not stated)
inhibition [6]: 100% | pIC50 [20]: 7.35

CC(C)(C)OC(=O)N[C@@H]1CCN(C(c2cccc(-c3cccnc3)c2)c2cc3c(cc2O)OCO3)C1 (some centres not stated)
inhibition [6]: 96.2% | pIC50 [20]: 6.74
